Experimental data published in patent US20210317092A1 (BAYER PHARMA AKTIENGESELLSCHAFT, priority 2016, published 2021).

Molecular target: T1, human Bradykinin B1 receptor (Homo sapiens, UniProt P46663)
T1 construct: host or cells: CHO-K1
T1 sequence (P46663 1-353): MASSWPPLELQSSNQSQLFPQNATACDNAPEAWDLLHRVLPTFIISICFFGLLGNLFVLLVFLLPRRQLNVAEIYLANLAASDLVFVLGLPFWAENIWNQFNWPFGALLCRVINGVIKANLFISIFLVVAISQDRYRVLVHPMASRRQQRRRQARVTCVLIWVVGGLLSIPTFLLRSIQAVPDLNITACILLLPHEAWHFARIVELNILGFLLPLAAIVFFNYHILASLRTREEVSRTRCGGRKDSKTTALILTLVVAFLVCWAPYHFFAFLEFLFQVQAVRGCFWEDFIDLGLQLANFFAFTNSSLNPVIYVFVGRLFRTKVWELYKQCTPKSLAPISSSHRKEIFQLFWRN
Test: Calcium flux Assay (FLIPR) with recombinant CHO-K1 cells expressing human Bradykinin B1 receptor, in presence (hB1 IC50) or absence (hB1 free IC50) of 0.1% BSA
Format: cell-based
Conditions: in absence of 0.1% BSA, read-out: hB1 free IC50

IC50 [nM]	SMILES
4.34	CCC(F)(F)c1ccc(-c2ccc(NC(=O)C3(c4ccc(C(F)(F)F)cc4F)CC3)cc2-c2nnn[nH]2)cn1 [Example 286, N-{4-[6-(1,1-difluoropropyl)py-ridin-3-yl]-3-(1H-tetrazol-5-yl)phenyl}-1-[2-fluoro-4-(trifluoromethyl)phenyl]cyclopro-panecarboxamide]
3.93	CCC(F)(F)c1ccc(-c2ccc(NC(=O)C3(c4ccc(OC(F)(F)F)cc4F)CC3)cc2-c2nnn[nH]2)cn1 [Example 287, N-{4-[6-(1,1-difluoropropyl)py-ridin-3-yl]-3-(1H-tetrazol-5-yl)phenyl}-1-[2-fluoro-4-(trifluoromethoxy)phenyl]cyclo-propanecarboxa-mide]
6.81	O=C(Nc1ccc(-c2ccc(C(F)(F)F)nc2)c(-c2nnn[nH]2)c1)C1(c2ccc(C(F)(F)F)c(F)c2)CC1 [Example 288, 1-[3-fluoro-4-(trifluoromethyl)phenyl]-N-{3-(1H-tetrazol-5-yl)-4-[6-(trifluoromethyl)pyridin-3-yl]phenyl}cyclopro-panecarboxa-mide]
50.2	O=C(Nc1ccc(-c2ccc(C(F)(F)F)nc2)c(-c2nnn[nH]2)c1)C1(c2cc(F)cc(C(F)(F)F)c2)CC1 [Example 289, 1-[3-fluoro-5-(trifluoromethyl)phenyl]-N-{3-(1H-tetrazol-5-yl)-4-[6-(trifluoromethyl)pyridin-3-yl]phenyl}cyclopro-panecarboxa-mide]
135	Cc1cc(Cl)ccc1C1(C(=O)Nc2ccc(-c3ccc(C(F)(F)F)nc3)c(-c3nnn[nH]3)c2)CC1 [Example 290, 1-(4-chloro-2-methylphenyl)-N-{3-(1H-tetrazol-5-yl)-4-[6-(trifluoromethyl)pyridin-3-yl]phenyl}cyclopro-panecarboxa-mide]
7.85	O=C(Nc1ccc(-c2ccc(C(F)(F)F)nc2)c(-c2nnn[nH]2)c1)C1(c2ccc(C(F)(F)F)cc2Cl)CC1 [Example 292, 1-[2-chloro-4-(trifluoromethyl)phenyl]-N-{3-(1H-tetrazol-5-yl)-4-[6-(trifluoromethyl)pyridin-3-yl]phenyl}cyclopro-panecarboxa-mide]
1730	O=C(Nc1cnc(-c2cnn(C(F)F)c2)c(-c2nnn[nH]2)c1)C1(c2ccc(C(F)(F)F)cc2F)CC1 [Example 296, N-{6-[1-(difluoromethyl)-1H-pyrazol-4-yl]-5-(1H-tetrazol-5-yl)pyridin-3-yl}-1-[2-fluoro-4-(trifluoromethyl)phenyl]cyclopro-panecarboxamide]
350	O=C(Nc1ccc(-c2ccc(C(F)(F)F)nc2)c(-c2nnn[nH]2)c1F)C1(c2cccc(Cl)c2)CC1 [Example 297, 1-(3-chlorophenyl)-N-{2-fluoro-3-(1H-tetrazol-5-yl)-4-[6-(trifluoromethyl)pyridin-3-yl]phenyl}cyclopro-panecarboxa-mide]
368	O=C(Nc1ccc(-c2ccc(C(F)(F)F)nc2)c(-c2nnn[nH]2)c1F)C1(c2ccc(F)c(F)c2)CC1 [Example 298, 1-(3,4-difluorophenyl)-N-{2-fluoro-3-(1H-tetrazol-5-yl)-4-[6-(trifluoromethyl)pyridin-3-yl]phenyl}cyclopro-panecarboxa-mide]
241	Cc1ccc(C2(C(=O)Nc3ccc(-c4ccc(C(F)(F)F)nc4)c(-c4nnn[nH]4)c3F)CC2)c(F)c1 [Example 299, 1-(2-fluoro-4-methylphenyl)-N-{2-fluoro-3-(1H-tetrazol-5-yl)-4-[6-(trifluoromethyl)pyridin-3-yl]phenyl}cyclopro-panecarboxa-mide]
58.1	O=C(Nc1ccc(-c2ccc(C(F)(F)F)nc2)c(-c2nnn[nH]2)c1F)C1(c2ccc(C(F)(F)F)cc2F)CC1 [Example 300]

Continued, molecule first:

SMILES	IC50 [nM]
O=C(Nc1ccc(-c2ccc(C(F)F)nc2)c(-c2nnn[nH]2)c1)C1(c2ccc(F)cc2F)CC1 [Example 273, N-{4-[6-(difluoromethyl)pyridin-3-yl]-3-(1H-tetrazol-5-yl)phenyl}-1-(2,4-difluorophenyl)cy-clopropanecar-boxamide]	24.9
O=C(Nc1ccc(-c2ccc(C(F)F)nc2)c(-c2nnn[nH]2)c1)C1(c2ccc(Cl)cc2F)CC1 [Example 274, 1-(4-chloro-2-fluorophenyl)-N-{4-[6-(difluoromethyl)pyridin-3-yl]-3-(1H-tetrazol-5-yl)phenyl}cyclopro-panecarboxa-mide]	6.35
Cc1ccc(C2(C(=O)Nc3ccc(-c4ccc(C(F)F)nc4)c(-c4nnn[nH]4)c3)CC2)c(F)c1 [Example 275, N-{4-[6-(difluoromethyl)pyridin-3-yl]-3-(1H-tetrazol-5-yl)phenyl}-1-(2-fluoro-4-methylphenyl)cy-clopropanecar-boxamide]	8.48
O=C(Nc1ccc(-c2ccc(C(F)F)nc2)c(-c2nnn[nH]2)c1)C1(c2ccc(OC(F)(F)F)cc2F)CC1 [Example 276, N-{4-[6-(difluoromethyl)pyridin-3-yl]-3-(1H-tetrazol-5-yl)phenyl}-1-[2-fluoro-4-(trifluoromethoxy)phenyl]cyclo-propanecarboxa-mide]	1.83
CC(F)(F)c1ccc(-c2ccc(NC(=O)C3(c4ccc(C(F)(F)F)cc4)CC3)cc2-c2nnn[nH]2)cn1 [Example 277, N-{4-[6-(1,1-difluoroethyl)py-ridin-3-yl]-3-(1H-tetrazol-5-yl)phenyl}-1-[4-(trifluoromethyl)phenyl]cyclopro-panecarboxamide]	3.19
CC(F)(F)c1ccc(-c2ccc(NC(=O)C3(c4ccc(OC(F)(F)F)cc4)CC3)cc2-c2nnn[nH]2)cn1 [Example 278, N-{4-[6-(1,1-difluroethyl)py-ridin-3-yl]-3-(1H-tetrazol-5-yl)phenyl}-1-[4-(trifluoromethoxy)phenyl]cyclo-propanecarboxa-mide]	3.62
Cc1ccc(C2(C(=O)Nc3ccc(-c4ccc(C(C)(F)F)nc4)c(-c4nnn[nH]4)c3)CC2)c(F)c1 [Example 280, N-{4-[6-(1,1-difluoroethyl)py-ridin-3-yl]-3-(1H-tetrazol-5-yl)phenyl}-1-(2-fluoro-4-methylphenyl)cy-clopropanecar-boxamide]	11.3
CC(F)(F)c1ccc(-c2ccc(NC(=O)C3(c4ccc(OC(F)(F)F)cc4F)CC3)cc2-c2nnn[nH]2)cn1 [Example 282, N-{4-[6-(1,1-difluoroethyl)py-ridin-3-yl]-3-(1H-tetrazol-5-yl)phenyl}-1-[2-fluoro-4-(trifluoromethoxy)phenyl]cyclo-propanecarboxa-mide]	3.49
CCC(F)(F)c1ccc(-c2ccc(NC(=O)C3(c4cccc(Cl)c4)CC3)cc2-c2nnn[nH]2)cn1 [Example 283, 1-(3-chlorophenyl)-N-{4-[6-(1,1-difluoropropyl)py-ridin-3-yl]-3-(1H-tetrazol-5-yl)phenyl}cyclopro-panecarboxa-mide]	8.19
CCC(F)(F)c1ccc(-c2ccc(NC(=O)C3(c4ccc(F)c(F)c4)CC3)cc2-c2nnn[nH]2)cn1 [Example 284, 1-(3,4-difluorophenyl)-N-{4-[6-(1,1-difluoropropyl)py-ridin-3-yl]-3-(1H-tetrazol-5-yl)phenyl}cyclopro-panecarboxa-mide]	15.3
CCC(F)(F)c1ccc(-c2ccc(NC(=O)C3(c4ccc(C)cc4F)CC3)cc2-c2nnn[nH]2)cn1 [Example 285, N-{4-[6-(1,1-difluoropropyl)py-ridin-3-yl]-3-(1H-tetrazol-5-yl)phenyl}-1-(2-fluoro-4-methylphenyl)cy-clopropanecar-boxamide]	15.8
